# Measurements reported in patent US20020002171A1, “Materials and methods for killing nematodes and nematode eggs” (priority 2000, published 2002).
# Tested on: Caenorhabditis elegans
# Assay: C. elegans L1 nematicidal dose response in 96-well plates, 5 day visual score (Example 2; same procedure for Example 7, Table 3)
# Type: in vivo
# Parameters: key to 5 Day Visual Score V1 / 5 Day Visual Score V2 / 5 Day Visual Score V3 / 5 Day Visual Score V4 / 5 Day Visual Score V6 / 5 Day Visual Score V5 / Initial HTS Run Visual Score / Follow-up HTS Run Visual Score: Dead: only stiff L1s (no movement); Dead (L4): worms are dead, but at a later larval stage; majority of worms are L1 (based on size) worms move when plate is tapped; majority of worms are L2 (based on size); majority of worms are L3 (based on size); majority of worms are L4 (based on size); AD: majority of worms are adult; #AD: 5 adult worms or less; B!: sterile (0-25 progeny); B: low broodsize (25-100 progeny); ˜B: moderate broodsize (100-250 progeny); <: reduced broodsize (250-500 progeny); OK: no effect (˜1000+ progeny)
# Details: Follow-up HTS run
# Outline: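 Scoring was by eye at 100× on day 5, after incubation at 20° C, of 20 C. elegans L1s per well fed 1% E. coli HB101 in NGM. Compound columns V1–V6 spanned 70 μM to 0.3 μM in 3-fold steps, with 1.4% DMSO in the top well and as control.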
Structure (SMILES),Follow-up HTS Run % Run,Follow-up HTS Run Visual Score,Follow-up HTS Run mOD
CCCCCCCCCCNc1nsc(N(CCCC)Cc2ccccc2)n1 [compound 279],131%,Dead,211 mOD
CCCCCCCCCCNc1nsc(N(CC)Cc2ccccc2)n1 [compound 280],122%,Dead,196 mOD
CCCCCCCCCCNc1nsc(N(CC(C)C)CC(C)C)n1 [compound 281],128%,Dead,206 mOD
C=CCN(CC=C)c1nc(NCCCCCCCCCC)ns1 [compound 282],122%,Dead,197 mOD
CCCCCCCCCCNc1nsc(N(C)CCc2ccccc2)n1 [compound 283],120%,Dead,193 mOD
CCCCCCCCCCNc1nsc(N(C)Cc2ccccc2)n1 [compound 284],122%,Dead,196 mOD
CCCCCCCCCCNc1nsc(N(C)CCc2ccc(OC)c(OC)c2)n1 [compound 285],131%,Dead,211 mOD
Cc1cccc(C)c1N1CCN(c2nc(NCCC(c3ccccc3)c3ccccc3)ns2)CC1 [compound 287],88%,–,142 mOD
CCCCCCCCCCCCCCCCCCN(C)c1nc(NCCC(c2ccccc2)c2ccccc2)ns1 [compound 288],82%,L4/AD/B!,132 mOD
C=CCN(CC=C)c1nc(NCCC(c2ccccc2)c2ccccc2)ns1 [compound 289],86%,–,139 mOD
CCOC(=O)CCN(Cc1ccccc1)c1nc(NCCC(c2ccccc2)c2ccccc2)ns1 [compound 290],99%,L4/AD/B,159 mOD
CCCCN(Cc1ccccc1)c1nc(NCc2ccc(F)cc2F)ns1 [compound 291],137%,B! (sterile (0-25 progeny)),220 mOD
CCN(Cc1ccccc1)c1nc(NCc2ccc(F)cc2F)ns1 [compound 292],116%,L4/AD/B!,187 mOD

# Same assay, conditions: Initial HTS run
Structure (SMILES),Initial HTS Run % Run,Initial HTS Run Visual Score,Initial HTS Run mOD
CCCCCCCCCCNc1nsc(N(CCCC)Cc2ccccc2)n1 [compound 279],144%,Dead,158 mOD
CCCCCCCCCCNc1nsc(N(CC)Cc2ccccc2)n1 [compound 280],144%,Dead,158 mOD
CCCCCCCCCCNc1nsc(N(CC(C)C)CC(C)C)n1 [compound 281],141%,Dead,155 mOD
C=CCN(CC=C)c1nc(NCCCCCCCCCC)ns1 [compound 282],135%,Dead,148 mOD
CCCCCCCCCCNc1nsc(N(C)CCc2ccccc2)n1 [compound 283],131%,Dead,144 mOD
CCCCCCCCCCNc1nsc(N(C)Cc2ccccc2)n1 [compound 284],142%,Dead,156 mOD
CCCCCCCCCCNc1nsc(N(C)CCc2ccc(OC)c(OC)c2)n1 [compound 285],149%,Dead,164 mOD
Cc1cccc(C)c1N1CCN(c2nc(NCCC(c3ccccc3)c3ccccc3)ns2)CC1 [compound 287],128%,–,141 mOD
CCCCCCCCCCCCCCCCCCN(C)c1nc(NCCC(c2ccccc2)c2ccccc2)ns1 [compound 288],105%,L3/L4/1AD/B,116 mOD
C=CCN(CC=C)c1nc(NCCC(c2ccccc2)c2ccccc2)ns1 [compound 289],104%,L4/AD/B,114 mOD
CCOC(=O)CCN(Cc1ccccc1)c1nc(NCCC(c2ccccc2)c2ccccc2)ns1 [compound 290],101%,L4/AD/B,111 mOD
CCCCN(Cc1ccccc1)c1nc(NCc2ccc(F)cc2F)ns1 [compound 291],136%,–,150 mOD
CCN(Cc1ccccc1)c1nc(NCc2ccc(F)cc2F)ns1 [compound 292],110%,–,121 mOD

# Same assay, conditions: dose response, dilution V1, day 5
row,Structure (SMILES),5 Day Visual Score V1
1,CCCCCCCCCCNc1nsc(N(CCCC)Cc2ccccc2)n1 [compound 279],Dead
2,CCCCCCCCCCNc1nsc(N(CC)Cc2ccccc2)n1 [compound 280],Dead
3,CCCCCCCCCCNc1nsc(N(CC(C)C)CC(C)C)n1 [compound 281],Dead
4,C=CCN(CC=C)c1nc(NCCCCCCCCCC)ns1 [compound 282],Dead
5,CCCCCCCCCCNc1nsc(N(C)CCc2ccccc2)n1 [compound 283],Dead
6,CCCCCCCCCCNc1nsc(N(C)Cc2ccccc2)n1 [compound 284],Dead
7,CCCCCCCCCCNc1nsc(N(C)CCc2ccc(OC)c(OC)c2)n1 [compound 285],Dead
8,Cc1cccc(C)c1N1CCN(c2nc(NCCC(c3ccccc3)c3ccccc3)ns2)CC1 [compound 287],Dead
9,CCCCCCCCCCCCCCCCCCN(C)c1nc(NCCC(c2ccccc2)c2ccccc2)ns1 [compound 288],L1
10,CCOC(=O)CCN(Cc1ccccc1)c1nc(NCCC(c2ccccc2)c2ccccc2)ns1 [compound 290],Dead
11,CCCCN(Cc1ccccc1)c1nc(NCc2ccc(F)cc2F)ns1 [compound 291],L4#AD/B!

# Same assay, conditions: dose response, dilution V2, day 5
row,Structure (SMILES),5 Day Visual Score V2
1,CCCCCCCCCCNc1nsc(N(CCCC)Cc2ccccc2)n1 [compound 279],Dead
2,CCCCCCCCCCNc1nsc(N(CC)Cc2ccccc2)n1 [compound 280],Dead
3,CCCCCCCCCCNc1nsc(N(CC(C)C)CC(C)C)n1 [compound 281],Dead
4,C=CCN(CC=C)c1nc(NCCCCCCCCCC)ns1 [compound 282],Dead
5,CCCCCCCCCCNc1nsc(N(C)CCc2ccccc2)n1 [compound 283],Dead
6,CCCCCCCCCCNc1nsc(N(C)Cc2ccccc2)n1 [compound 284],Dead
7,CCCCCCCCCCNc1nsc(N(C)CCc2ccc(OC)c(OC)c2)n1 [compound 285],Dead
8,Cc1cccc(C)c1N1CCN(c2nc(NCCC(c3ccccc3)c3ccccc3)ns2)CC1 [compound 287],B (low broodsize (25-100 progeny))
9,CCCCCCCCCCCCCCCCCCN(C)c1nc(NCCC(c2ccccc2)c2ccccc2)ns1 [compound 288],B (low broodsize (25-100 progeny))
10,C=CCN(CC=C)c1nc(NCCC(c2ccccc2)c2ccccc2)ns1 [compound 289],˜B (moderate broodsize (100-250 progeny))
11,CCCCN(Cc1ccccc1)c1nc(NCc2ccc(F)cc2F)ns1 [compound 291],OK (no effect (˜1000+ progeny))
12,CCN(Cc1ccccc1)c1nc(NCc2ccc(F)cc2F)ns1 [compound 292],˜B (moderate broodsize (100-250 progeny))

# Same assay, conditions: dose response, dilution V3, day 5
row,Structure (SMILES),5 Day Visual Score V3
1,CCCCCCCCCCNc1nsc(N(CC)Cc2ccccc2)n1 [compound 280],˜B (moderate broodsize (100-250 progeny))
2,CCCCCCCCCCNc1nsc(N(C)Cc2ccccc2)n1 [compound 284],Dead
3,CCCCCCCCCCCCCCCCCCN(C)c1nc(NCCC(c2ccccc2)c2ccccc2)ns1 [compound 288],OK (no effect (˜1000+ progeny))
4,C=CCN(CC=C)c1nc(NCCC(c2ccccc2)c2ccccc2)ns1 [compound 289],OK (no effect (˜1000+ progeny))
5,CCOC(=O)CCN(Cc1ccccc1)c1nc(NCCC(c2ccccc2)c2ccccc2)ns1 [compound 290],OK (no effect (˜1000+ progeny))
6,CCCCN(Cc1ccccc1)c1nc(NCc2ccc(F)cc2F)ns1 [compound 291],OK (no effect (˜1000+ progeny))
7,CCN(Cc1ccccc1)c1nc(NCc2ccc(F)cc2F)ns1 [compound 292],OK (no effect (˜1000+ progeny))

# Same assay, conditions: dose response, dilution V4, day 5
row,Structure (SMILES),5 Day Visual Score V4
1,CCCCCCCCCCNc1nsc(N(CCCC)Cc2ccccc2)n1 [compound 279],OK (no effect (˜1000+ progeny))
2,CCCCCCCCCCNc1nsc(N(CC)Cc2ccccc2)n1 [compound 280],OK (no effect (˜1000+ progeny))
3,CCCCCCCCCCNc1nsc(N(CC(C)C)CC(C)C)n1 [compound 281],OK (no effect (˜1000+ progeny))
4,C=CCN(CC=C)c1nc(NCCCCCCCCCC)ns1 [compound 282],OK (no effect (˜1000+ progeny))
5,CCCCCCCCCCNc1nsc(N(C)CCc2ccccc2)n1 [compound 283],OK (no effect (˜1000+ progeny))
6,CCCCCCCCCCNc1nsc(N(C)Cc2ccccc2)n1 [compound 284],˜B (moderate broodsize (100-250 progeny))
7,CCCCCCCCCCNc1nsc(N(C)CCc2ccc(OC)c(OC)c2)n1 [compound 285],˜B (moderate broodsize (100-250 progeny))
8,Cc1cccc(C)c1N1CCN(c2nc(NCCC(c3ccccc3)c3ccccc3)ns2)CC1 [compound 287],OK (no effect (˜1000+ progeny))
9,CCCCCCCCCCCCCCCCCCN(C)c1nc(NCCC(c2ccccc2)c2ccccc2)ns1 [compound 288],OK (no effect (˜1000+ progeny))
10,C=CCN(CC=C)c1nc(NCCC(c2ccccc2)c2ccccc2)ns1 [compound 289],OK (no effect (˜1000+ progeny))
11,CCOC(=O)CCN(Cc1ccccc1)c1nc(NCCC(c2ccccc2)c2ccccc2)ns1 [compound 290],OK (no effect (˜1000+ progeny))
12,CCCCN(Cc1ccccc1)c1nc(NCc2ccc(F)cc2F)ns1 [compound 291],OK (no effect (˜1000+ progeny))
13,CCN(Cc1ccccc1)c1nc(NCc2ccc(F)cc2F)ns1 [compound 292],OK (no effect (˜1000+ progeny))

# Same assay, conditions: dose response, dilution V5, day 5
row,Structure (SMILES),5 Day Visual Score V5
1,CCCCCCCCCCNc1nsc(N(CCCC)Cc2ccccc2)n1 [compound 279],OK (no effect (˜1000+ progeny))
2,CCCCCCCCCCNc1nsc(N(CC)Cc2ccccc2)n1 [compound 280],OK (no effect (˜1000+ progeny))
3,CCCCCCCCCCNc1nsc(N(CC(C)C)CC(C)C)n1 [compound 281],OK (no effect (˜1000+ progeny))
4,C=CCN(CC=C)c1nc(NCCCCCCCCCC)ns1 [compound 282],OK (no effect (˜1000+ progeny))
5,CCCCCCCCCCNc1nsc(N(C)CCc2ccccc2)n1 [compound 283],OK (no effect (˜1000+ progeny))
6,CCCCCCCCCCNc1nsc(N(C)Cc2ccccc2)n1 [compound 284],OK (no effect (˜1000+ progeny))
7,CCCCCCCCCCNc1nsc(N(C)CCc2ccc(OC)c(OC)c2)n1 [compound 285],OK (no effect (˜1000+ progeny))
8,Cc1cccc(C)c1N1CCN(c2nc(NCCC(c3ccccc3)c3ccccc3)ns2)CC1 [compound 287],OK (no effect (˜1000+ progeny))
9,CCCCCCCCCCCCCCCCCCN(C)c1nc(NCCC(c2ccccc2)c2ccccc2)ns1 [compound 288],OK (no effect (˜1000+ progeny))
10,C=CCN(CC=C)c1nc(NCCC(c2ccccc2)c2ccccc2)ns1 [compound 289],OK (no effect (˜1000+ progeny))
11,CCOC(=O)CCN(Cc1ccccc1)c1nc(NCCC(c2ccccc2)c2ccccc2)ns1 [compound 290],OK (no effect (˜1000+ progeny))
12,CCCCN(Cc1ccccc1)c1nc(NCc2ccc(F)cc2F)ns1 [compound 291],OK (no effect (˜1000+ progeny))
13,CCN(Cc1ccccc1)c1nc(NCc2ccc(F)cc2F)ns1 [compound 292],OK (no effect (˜1000+ progeny))

# Same assay, conditions: dose response, dilution V6, day 5
row,Structure (SMILES),5 Day Visual Score V6
1,CCCCCCCCCCNc1nsc(N(CCCC)Cc2ccccc2)n1 [compound 279],OK (no effect (˜1000+ progeny))
2,CCCCCCCCCCNc1nsc(N(CC)Cc2ccccc2)n1 [compound 280],OK (no effect (˜1000+ progeny))
3,CCCCCCCCCCNc1nsc(N(CC(C)C)CC(C)C)n1 [compound 281],OK (no effect (˜1000+ progeny))
4,C=CCN(CC=C)c1nc(NCCCCCCCCCC)ns1 [compound 282],OK (no effect (˜1000+ progeny))
5,CCCCCCCCCCNc1nsc(N(C)CCc2ccccc2)n1 [compound 283],OK (no effect (˜1000+ progeny))
6,CCCCCCCCCCNc1nsc(N(C)Cc2ccccc2)n1 [compound 284],OK (no effect (˜1000+ progeny))
7,CCCCCCCCCCNc1nsc(N(C)CCc2ccc(OC)c(OC)c2)n1 [compound 285],OK (no effect (˜1000+ progeny))
8,Cc1cccc(C)c1N1CCN(c2nc(NCCC(c3ccccc3)c3ccccc3)ns2)CC1 [compound 287],OK (no effect (˜1000+ progeny))
9,CCCCCCCCCCCCCCCCCCN(C)c1nc(NCCC(c2ccccc2)c2ccccc2)ns1 [compound 288],OK (no effect (˜1000+ progeny))
10,C=CCN(CC=C)c1nc(NCCC(c2ccccc2)c2ccccc2)ns1 [compound 289],OK (no effect (˜1000+ progeny))
11,CCOC(=O)CCN(Cc1ccccc1)c1nc(NCCC(c2ccccc2)c2ccccc2)ns1 [compound 290],OK (no effect (˜1000+ progeny))
12,CCCCN(Cc1ccccc1)c1nc(NCc2ccc(F)cc2F)ns1 [compound 291],OK (no effect (˜1000+ progeny))
13,CCN(Cc1ccccc1)c1nc(NCc2ccc(F)cc2F)ns1 [compound 292],OK (no effect (˜1000+ progeny))
